Experimental findings from patent US8017612B2, “Piperazine compound and use thereof as a HCV polymerase inhibitor” (priority 2006, dated 2011) are described below.

Bounds are passed on as bounds.

The target in assay [1] is T1, HCV polymerase (NS5B) type 1b (Hepatitis C virus genotype 1b, UniProt P26663).
T1 construct: a region encoding NS5B (J Virol 1991 March, 65(3), 1105-13, 544 amino acids after deletion of 47 amino acids on the C-terminal); 6xHis (C); made in house; host or cells: Escherichia coli
Put plainly: Assay of enzyme (HCV polymerase) inhibitory activity, type 1b enzyme. It is filed as biochemical, HCV BK strain (type 1b). The method, boiled down:
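NS5B from HCV BK strain (type 1b), C-terminal 47 aa deleted, C-terminal His6-tagged, E. coli-expressed, 0.5 μg/ml, with ~450 nt substrate RNA carrying the 3′ UTR (polyU, 3′X) at 5 μg/ml. Incubation 60 min at 25 °C with 50 μM ATP/GTP/CTP, 2 μM UTP plus [3H]UTP, pH 7.5 Tris.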

For assay [2], the target named is T2, HCV polymerase (NS5B) type 1a (Hepatitis C virus genotype 1a, UniProt P26664).
T2 construct: made in house; host or cells: Escherichia coli (by the 'similar method' of the 1b enzyme)
The assay is described as follows: Assay of enzyme (HCV polymerase) inhibitory activity, type 1a enzyme. The format is biochemical, HCV type 1a (cloned from the blood of patients). The method, boiled down:
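Patient-derived type 1a NS5B (C-terminal 47-aa deletion, His-tagged, E. coli-expressed) at 1.5 μg/ml was reacted with 5 μg/ml 3′UTR-containing substrate RNA, 50 μM ATP/GTP/CTP, 2 μM UTP plus [3H]UTP, pH 7.5, 25° C for 60 min. TCA-precipitated RNA radioactivity was counted; IC50 from ± compound.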

Where [3] appears, read: HCV polymerase inhibitory activity IC50, 1b, type 1b enzyme.
Where [4] appears, read: HCV polymerase inhibitory activity IC50, 1a, type 1a enzyme.
Setting [5] is: HCV polymerase inhibitory activity (IC50), 1b, type 1b enzyme 0.5 μg/ml, 25° C., 60 min.
[6] abbreviates: HCV polymerase inhibitory activity (IC50), 1a, type 1a enzyme 1.5 μg/ml, 25° C., 60 min.

As usually defined, the IC50 is the concentration needed to halve the response being measured. Higher therefore signals a need for much substance. As for `CCC(F)(F)c1ccc(CNC(=O)[C@H]2CN(c3cnc4cncnc4n3)CCN2S(=O)(=O)c2ccc(-c3cccc(C(=O)O)c3)cc2)cc1` [Example 753, 4′-{(R)-2-[4-(1,1-difluoro-propyl)-benzylcarbamoyl]-4-pteridin-7-yl-piperazine-1-sulfonyl}-biphenyl-3-carboxylic acid], the IC50 in assay [1] (setting [3]) and in assay [2] (setting [4]) was less than 100 nM in each case.
With `CCOC(=O)COc1cccc(NC(=O)N2CCN(S(=O)(=O)c3ccc(C(F)(F)F)cc3)[C@@H](C(=O)NCc3ccc(C(C)C)cc3)C2)c1` [Example 256, (3-{[(R)-3-(4-isopropyl-benzylcarbamoyl)-4-(4-trifluoromethyl-benzenesulfonyl)-piperazine-1-carbonyl]-amino}-phenoxy)-acetic acid ethyl ester], the IC50 in assay [1] (setting [5]) and in assay [2] (setting [6]) was 100 to 1000 nM in each case.
On to `CCCc1ccc(CNC(=O)[C@H]2CN(c3nc(C)c(C(N)=O)s3)CCN2S(=O)(=O)c2ccc(OC(F)(F)F)cc2)cc1` [Example 406, (R)-4-(5-carbamoyl-4-methyl-thiazol-2-yl)-1-(4-trifluoromethoxy-benzenesulfonyl)-piperazine-2-carboxylic acid 4-propyl-benzylamide], for which the IC50 in assay [1] (setting [5]) and in assay [2] (setting [6]) was less than 100 nM throughout.
As to `CCC(F)(F)c1ccc(CNC(=O)[C@H]2CN(c3nccc(N)n3)CCN2S(=O)(=O)c2ccc(OC(F)(F)F)cc2)cc1` [Example 585, (R)-4-(4-amino-pyrimidin-2-yl)-1-(4-trifluoromethoxy-benzenesulfonyl)-piperazine-2-carboxylic acid 4-(1,1-difluoro-propyl)-benzylamide], the IC50 in assay [1] (setting [5]) and in assay [2] (setting [6]) was 100 to 1000 nM throughout.
Regarding `CC(=O)N1CCN(S(=O)(=O)c2ccc(-n3cc(Cl)cn3)s2)C(C(=O)NCc2ccc(C(F)(F)F)cc2)C1` (stereo not drawn) [Example 62, 4-acetyl-1-[5-(4-chloro-pyrazol-1-yl)-thiophene-2-sulfonyl]-piperazine-2-carboxylic acid 4-trifluoromethyl-benzylamide], the IC50 in assay [1] (setting [5]) and in assay [2] (setting [6]) was greater than 1000 nM each time.
Regarding `CCC(F)(F)c1ccc(CNC(=O)[C@H]2CN(C(=O)Cc3nnn(C)n3)CCN2S(=O)(=O)c2ccc(OC(F)(F)F)cc2)cc1` [Example 518, (R)-4-[2-(2-methyl-2H-tetrazol-5-yl)-acetyl]-1-(4-trifluoromethoxy-benzenesulfonyl)-piperazine-2-carboxylic acid 4-(1,1-difluoro-propyl)-benzylamide], the IC50 in assay [1] (setting [5]) and in assay [2] (setting [6]) was less than 100 nM in each case.
Take `CC(=O)N1CCN(S(=O)(=O)c2ccc(Oc3ccc(Cl)cc3)cc2)C(C(=O)NCc2ccc(C(F)(F)F)cc2)C1` (stereo not drawn) [Example 25, 4-acetyl-1-[4-(4-chloro-phenoxy)-benzenesulfonyl]-piperazine-2-carboxylic acid 4-trifluoromethyl-benzylamide]: the IC50 in assay [1] (setting [5]) and in assay [2] (setting [6]) was greater than 1000 nM each time.
Turning to `CC(=O)N1CCN(S(=O)(=O)c2ccc(OC(F)(F)F)cc2)[C@@H](C(=O)NCc2ccc(Br)cc2)C1` [Example 655, (R)-4-acetyl-1-(4-trifluoromethoxy-benzenesulfonyl)-piperazine-2-carboxylic acid 4-bromo-benzylamide], the IC50 in assay [1] (setting [5]) and in assay [2] (setting [6]) was 100 to 1000 nM each time.
As to `CCC(F)(F)c1ccc(CNC(=O)[C@H]2CN(C(=O)Nc3cscn3)CCN2S(=O)(=O)c2ccc(OC(F)(F)F)cc2)cc1` [Example 525, (R)-4-(4-trifluoromethoxy-benzenesulfonyl)-piperazine-1,3-dicarboxylic acid 3-[4-(1,1-difluoro-propyl)-benzylamide] 1-thiazol-4-ylamide], the IC50 in assay [1] (setting [5]) and in assay [2] (setting [6]) was less than 100 nM each time.
With `CC(C)c1ccc(S(=O)(=O)N2CCN(c3nc(-c4ccccc4)cs3)CC2C(=O)NCc2ccc(C(F)(F)F)cc2)cc1` (stereo not drawn) [Example 135, 1-(4-isopropyl-benzenesulfonyl)-4-(4-phenyl-thiazol-2-yl)-piperazine-2-carboxylic acid 4-trifluoromethyl-benzylamide], the IC50 in assay [1] (setting [5]) and in assay [2] (setting [6]) was greater than 1000 nM throughout.
Turning to `CCOC(=O)c1ncc2sc(N3CCN(S(=O)(=O)c4ccc(OC(F)(F)F)cc4)[C@@H](C(=O)NCc4ccc(OC(F)(F)F)cc4)C3)nc2n1` [Example 1007, 2-[(R)-4-(4-trifluoromethoxy-benzenesulfonyl)-3-(4-trifluoromethoxy-benzylcarbamoyl)-piperazin-1-yl]-thiazolo[4,5-d]pyrimidine-5-carboxylic acid ethyl ester], the IC50 in assay [1] (setting [3]) and in assay [2] (setting [4]) was less than 100 nM throughout.
For `CCCN(CCC)CC(=O)N1CCN(S(=O)(=O)c2ccc(I)cc2)C(C(=O)NCc2ccc(N(C)C)cc2)C1` (stereo not drawn) [Example 110, 4-(2-dipropylamino-acetyl)-1-(4-iodo-benzenesulfonyl)-piperazine-2-carboxylic acid 4-dimethylamino-benzylamide], the IC50 in assay [1] (setting [5]) and in assay [2] (setting [6]) was greater than 1000 nM each time.
Turning to `CCC(F)(F)c1ccc(CNC(=O)[C@H]2CN(C(=O)/C=C/C(=O)O)CCN2S(=O)(=O)c2ccc(OC(F)(F)F)cc2)cc1` [Example 667, (E)-4-[(R)-3-[4-(1,1-difluoro-propyl)-benzylcarbamoyl]-4-(4-trifluoromethoxy-benzenesulfonyl)-piperazin-1-yl]-4-oxo-but-2-enoic acid], the IC50 was 100 to 1000 nM in assay [1] (setting [3]) and greater than 1000 nM in assay [2] (setting [4]).
Consider `CC(C)c1ccc(CNC(=O)[C@H]2CN(C3=NCCS3)CCN2S(=O)(=O)c2ccc(C(F)(F)F)cc2)cc1` [Example 179, (R)-4-(4,5-dihydro-thiazol-2-yl)-1-(4-trifluoromethyl-benzenesulfonyl)-piperazine-2-carboxylic acid 4-isopropyl-benzylamide], for which the IC50 in assay [1] (setting [5]) and in assay [2] (setting [6]) was 100 to 1000 nM throughout.
Take `CCCc1ccc(CNC(=O)[C@H]2CN(c3cnc(CN(C)C)cn3)CCN2S(=O)(=O)c2ccc(CC)cc2)cc1` [Example 538, (R)-5′-dimethylaminomethyl-4-(4-ethyl-benzenesulfonyl)-3,4,5,6-tetrahydro-2H-[1,2′]bipyrazinyl-3-carboxylic acid 4-propyl-benzylamide]: the IC50 in assay [1] (setting [5]) and in assay [2] (setting [6]) was less than 100 nM each time.
As for `COc1ccc(NC(=O)N2CCN(S(=O)(=O)c3ccc(C(F)(F)F)cc3)[C@@H](C(=O)NCc3ccc(C(C)C)cc3)C2)cc1` [Example 277, (R)-4-(4-trifluoromethyl-benzenesulfonyl)-piperazine-1,3-dicarboxylic acid 3-(4-isopropyl-benzylamide) 1-[(4-methoxy-phenyl)-amide]], the IC50 was 100 to 1000 nM in assay [1] (setting [5]) and greater than 1000 nM in assay [2] (setting [6]).
`COc1cccc(CCNC(=O)[C@H]2CN(C(C)=O)CCN2S(=O)(=O)c2ccc(OC(F)(F)F)cc2)c1` [Example 672, (R)-4-acetyl-1-(4-trifluoromethoxy-benzenesulfonyl)-piperazine-2-carboxylic acid [2-(3-methoxy-phenyl)-ethyl]-amide]: the IC50 in assay [1] (setting [3]) and in assay [2] (setting [4]) was greater than 1000 nM throughout.
With `CCC(F)(F)c1ccc(CNC(=O)[C@H]2CN(c3cnc(CN(C)C)cn3)CCN2S(=O)(=O)c2ccc(OC(F)(F)F)cc2)cc1` [Example 595, (R)-5′-dimethylaminomethyl-4-(4-trifluoromethoxy-benzenesulfonyl)-3,4,5,6-tetrahydro-2H-[1,2′]bipyrazinyl-3-carboxylic acid 4-(1,1-difluoro-propyl)-benzylamide], the IC50 in assay [1] (setting [5]) and in assay [2] (setting [6]) was less than 100 nM each time.
